Results reported in patent US11793782B2, “Therapeutic agents for neurodegenerative diseases” (priority 2017, dated 2023).

How the values were obtained:
[1] = system: Aspartylglucosaminuria patient fibroblasts; assay: Lysosomal volume via LysoTracker, Aspartylglucosaminuria fibroblasts; assay type: cell-based, human; settings: 1 mM, 6 days
[2] = system: Sandhoff disease patient fibroblasts; assay: Glycosphingolipid (GSL) levels by HPLC, Sandhoff fibroblasts; assay type: cell-based, human; settings: 1 mM for 6 days
[3] = system: Mucopolysaccharidosis Type IIIB (MPS IIIB) patient fibroblasts; assay: Lysosomal volume via LysoTracker, MPS IIIB fibroblasts; assay type: cell-based, human; settings: 1 mM, 6 days
MSA-P patients = assay: Case studies, multiple system atrophy Parkinson type (MSA-P) patients; assay type: in vivo, human; settings: MSA-P Patient 1; 6 weeks later
[4] = system: AB variant of Tay-Sachs disease patient fibroblasts; assay: Glycosphingolipid (GSL) levels by HPLC, AB variant fibroblasts; assay type: cell-based, human; settings: 1 mM for 6 days
[5] = system: Lewy Body dementia patient; assay: Case study, Lewy Body dementia; assay type: in vivo, human
Protocol: The patient started taking acetyl-leucine (3 g/day for one week; 5 g/day thereafter) and was evaluated after four weeks. […] Medication was reduced to 3 g/day, and the patient was instructed to stop medication about two weeks later.

[6] = system: Hexb−/− mouse (Sandhoff disease model); assay: Lifespan of Sandhoff mouse; assay type: in vivo
Protocol: This study made use of a mouse model of Sandhoff disease, the Hexb^−/− mouse, as descrbed in Jeyakumar et al. (Jeyakumar, M. et al. (1999) Proc. Natl. Acad. Sci. USA 96: 6388-6393).
In FIG. 7A, acetyl-leucine-treated mice were treated with 0.1 g/kg acetyl-leucine from 3 weeks of age. The asterisks (*) indicates a p-value of <0.05 vs untreated Sandhoff mice. Data is average of n=6 mice per group. Without treatment, the median survival time of Sandhoff mice was 112 days. Treatment with acetyl-leucine (0.1 g/kg body weight since 3 weeks of age) increased the median lifespan to 120 days.

[7] = system: Mucolipidosis Type IIIA (MLIIIA) patient fibroblasts; assay: Lysosomal volume via LysoTracker, MLIIIA fibroblasts; assay type: cell-based, human; settings: 1 mM, 6 days
[8] = system: patients with Niemann-Pick Type C (NPC); settings: Bremova et al. (2015); cited from earlier work
[9] = system: downbeat nystagmus patients; assay: Case studies, downbeat nystagmus patients; assay type: in vivo, human; settings: downbeat nystagmus Patient 2
[10] = system: Hexb−/− mouse (Sandhoff disease model); assay: Step cycle, Sandhoff mouse; assay type: in vivo; settings: Sandhoff mice, 0.1 g/kg from 3 weeks of age, 12 weeks of age
Protocol: Step cycle is the length of time taken during locomotion by a limb from the time it leaves the ground until it leaves the ground on the next occasion. Step cycle time was assessed at 12 weeks of age in untreated and acetyl-leucine treated Sandhoff model mice. Acetyl-leucine treatment constituted 0.1 g/kg body weight acetyl-leucine from 3 weeks of age.

Npc1−/− mice = assay: Coat condition of Npc1−/− mice; assay type: in vivo, mouse; settings: 0.1 g/kg in chow from weaning, nine weeks of age
Excerpt: Separate groups of Npc1^-/- and Npc1^+/+ mice were left untreated, as controls.

[11] = system: Hexb−/− mouse (Sandhoff disease model); assay: Bar crossing test, Sandhoff mouse; assay type: in vivo; settings: 0.1 g/kg body weight from 3 weeks of age
Excerpt: The bar crossing test is a method for assessing motor function in mice in which the mouse is placed hanging from the centre of a horizontal bar by its front limbs. A wild-type mouse with normal motor function will be able to engage its hind limbs and thereby move to one of the platforms at either end of the bar, and in doing so complete the test. An untreated Sandhoff mouse is able to complete the test up until around 11 weeks of age. After this point motor function and hind-limb mobility/engagement have deteriorated to the point to which the mouse cannot complete the test, and will drop from the bar onto the padded surface below. […] In FIG. 7 B, acetyl-leucine treatment of 0.1 g/kg body weight was provided from 3 weeks of age. The acetyl-leucine treated Sandhoff mice retained the ability to complete the test up to 13 weeks of age (inclusive). Data shown is the mean of 6 mice per group. […]

vertigo patients = settings: used in France to treat acute vertigo since 1957; cited from earlier work
[12] = system: GM1 Gangliosidosis patient; assay: Case study, GM1 Gangliosidosis patient; assay type: in vivo, human; settings: after one month
Excerpt: The patient in this case study was a person who was genetically diagnosed with GM1 Gangliosidosis and who was not able to stand or walk by themself, was very limited in daily activities (eating, washing, dressing themself was not possible), and had ocular movement disorder, anarthria, and distinct problems in cognitive function and concentration (neurological examination was not possible).
The patient was started on therapy with acetyl-leucine at a dose of 1.5 g per day for the first week, followed by a dose of 3 g per day for the second week onwards.

SCA 1 patient = assay: Case study, Spinocerebellar Ataxia (SCA) 1; assay type: in vivo, human
Excerpt: The patient in this case study was a person who was genetically diagnosed with Spinocerebellar Ataxia (SCA) 1. Before treatment, the patient had severe problems with speaking and swallowing, tremor of both arms, spasticity and moderate ataxia of stance and gait. The patient also had problems sleeping.

[13] = system: fibroblast cell line from an NPC patient; assay: Relative lysosomal volume via LysoTracker, NPC fibroblasts; assay type: cell-based, human; settings: 1 mM
Protocol: A fibroblast cell line from an NPC patient was treated for 3 days with N-acetyl-DL-leucine (1 mM) and relative lysosomal volume was quantified via LysoTracker, a fluorescent dye that accumulates in acidic organelles. Increased LysoTracker fluorescence is indicative of an increase in lysosomal size and/or number, and is a hallmark of NPC cells.

[14] = after 1 week on acetyl-DL-leucine
[15] = after 4 weeks on acetyl-DL-leucine

For `CC(=O)NC(CC(C)C)C(=O)O` (racemic) [acetyl-DL-leucine], the “LysoTracker fluorescence relative to untreated disease fibroblasts” value [1] was “trend in reducing LysoTracker fluorescence”, the GSL levels [2] was “trend towards decreased GSL levels” and the “LysoTracker fluorescence relative to untreated disease fibroblasts” value [3] was “statistically significant reduction in LysoTracker fluorescence”. For the same compound, the “Symptoms after stopping medication” value (MSA-P patients) was “did not report deterioration of symptoms”, the GSL levels [4] was “trend towards decreased GSL levels” and the Patient report ([5]; 5 g/day, after four weeks) was “increased fatigue and a deterioration of balance and speech”. The “Coefficient of variation (temporal)” value [5, 14] was 9.1, the Double stance [5, 14] was 36.1% and the Max. speed [5, 14] was 92 cm/s. It also gave a Step cycle length [5, 14] of 81 cm, a Track width [5, 14] of 4.6 cm and a cadence [5, 14] of 81 steps/minute. For the same compound, the speed [5, 14] was 55 cm/s, the “Coefficient of variation (temporal)” value [5, 15] was 8.8 and the Double stance [5, 15] was 38.7%. The “Functional Gait Assessment” value [5, 15] was 11/30, the Max. speed [5, 15] was 74 cm/s and the Step cycle length [5, 15] was 79 cm. The Track width [5, 15] was 6.7 cm, the cadence [5, 15] was 85 steps/minute and the speed [5, 15] was 56 cm/s. The Patient report ([5]; decreased dose 3 g/day, re-evaluated about one month after ceasing) was “did not report improvement of symptomatology”, the Median lifespan ([6]; Sandhoff mice, 0.1 g/kg body weight since 3 weeks of age, untreated 112 days) was 120 days and the Lifespan ([6]; Sandhoff mouse, 0.1 g/kg from 3 weeks of age, p<0.05 vs untreated) was “statistically significant increase in the lifespan”. The “LysoTracker fluorescence relative to untreated disease fibroblasts” value [7] was “trend in reducing LysoTracker fluorescence”, the “Ataxia in one-month study involving 12 patients” value [8] was “symptomatic improvement of ataxia” and the “Self-chosen velocity (gait analysis)” value ([9]; about one month after stopping treatment, decrease from 85) was 72 cm/s. The Maximal gait velocity ([9]; about one month after stopping treatment, decrease from 155) was 113 cm/s, the “Self-chosen velocity (gait analysis)” value ([9]; on treatment, increase from 56) was 85 cm/s and the “Average step cycle time” value ([10]; p<0.001 vs untreated) was “significantly faster average step cycle times”. The “Hind step cycle time” value ([10]; p<0.01 vs untreated) was “significantly faster hind step cycle times”, the “Front step cycle time” value ([10]; p<0.05 vs untreated) was “significantly faster front step cycle times” and the Coat condition (Npc1−/− mice) was “smooth and glossy coat”. The “Age up to which ability to complete the bar crossing test was retained” value ([11]; Sandhoff mice, untreated around 11 weeks) was “up to 13 weeks of age”, the “Motor function in bar-crossing test” value ([11]; Sandhoff mouse model) was “improved motor function and hind-limb mobility/engagement” and the Safety profile (vertigo patients) was “excellent safety profile”. The SARA ([12]; 3 g per day, baseline 35/40) was 35/40, the Clinical observation [12] was “stable general condition, increased gait (more fluent), and stable stance in natural position” and the mRDS ([12]; baseline 15) was 16. For the same compound, the EQ-5D-5L visual scale ([12]; baseline 50) was 60, the Symptoms (SCA 1 patient; 5 g/day, three weeks on medication) was “all symptoms significantly improved” and the Side-effects (SCA 1 patient; over two years on the same dosage) was “without any side-effects”. For the same compound, the “Intensity of signs and symptoms after stopping” value (SCA 1 patient; two weeks after medication was stopped) was “the same as before therapy”, the “LysoTracker fluorescence (lysosomal volume)” value ([13]; fibroblasts from NPC patient of mild clinical severity) was “significant decrease in LysoTracker fluorescence” and the “LysoTracker fluorescence (lysosomal volume)” value ([13]; fibroblasts from additional NPC patients of variable clinical severity, 72 hours) was “replicated”.
